From the METLIN SMRT retention time set (Domingo-Almenara et al. 2019)

Test: gradient 5% acetonitrile 3 min, to 50% in 2 min, to 85% in 15 min, held 3 min, 100 µL/min
Settings: column: Zorbax Extend-C18 2.1 x 50 mm; eluents: water / acetonitrile, 0.1% formic acid
Outline: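 In both positive and negative ionization mode, a quadrupole time-of-flight mass spectrometer coupled to HPLC analyzed pure standards run in mixtures of ~100 molecules. The Zorbax Extend-C18 column (2.1 × 50 mm, 1.8 μm) was operated at 100 μL/min with water and acetonitrile, each containing 0.1% formic acid. The dead volume was 40 μL and the dwell volume 900 μL. Retention time came from adduct peaks that were computationally picked and individually inspected by hand.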

Structure (SMILES): O=C(NCc1ccc(F)cc1F)C1CCCN(c2nc3ccsc3c(=O)n2-c2ccc(F)cc2)C1 (centres undefined)
- RP-LC retention time: 885 s

Structure (SMILES): COc1ccc(C2CC(=O)N(c3ccc4c(c3)OCCO4)C(=O)C2)cc1OC
- RP-LC retention time: 789 s

Structure (SMILES): Fc1ccc(C2Cn3nnc(-c4nc(-c5ccccn5)no4)c3CO2)cc1 (centres undefined)
- RP-LC retention time: 854 s

Structure (SMILES): O=C1NC2CCCCC2=C1CC(=O)N1CCCCC1 (centres undefined)
- RP-LC retention time: 633 s

Structure (SMILES): O=C(NCc1ccc2c(c1)OCO2)C1CCN(C(=O)c2cccc(F)c2)CC1
- RP-LC retention time: 719 s

Structure (SMILES): COc1ccc(OC)c(Nc2c(-c3ccc(Cl)cc3)nc3cnccn23)c1
- RP-LC retention time: 968 s

Structure (SMILES): COc1ccccc1CNC(=O)c1cc(C)nn1-c1ccccc1
- RP-LC retention time: 809 s

Structure (SMILES): CCNC(=O)C1CCN(c2nc3ccc(-c4ccc(OC)cc4)nc3s2)CC1
- RP-LC retention time: 825 s

Structure (SMILES): CCC(CO)NC(=O)C(=O)NCCC1=CCCCC1 (centres undefined)
- RP-LC retention time: 724 s

Structure (SMILES): O=C(NCCc1ccco1)c1c(-c2ccccc2)nnc2ccccc12
- RP-LC retention time: 784 s

Structure (SMILES): CCOc1ccc(C(=O)NC2CCN(c3cc(-c4cccs4)[nH]n3)C2)cc1OCC (centres undefined)
- RP-LC retention time: 755 s

Structure (SMILES): O=C(NCc1ccc2c(c1)OCO2)C1CCCN(c2nccn3nc(-c4ccc(F)cc4)cc23)C1 (centres undefined)
- RP-LC retention time: 872 s

Structure (SMILES): O=C1C(N2CCN(S(=O)(=O)c3ccc(Cl)s3)CC2)CCN1Cc1ccccn1 (centres undefined)
- RP-LC retention time: 613 s

Structure (SMILES): CS(=O)(=O)Nc1ccc(C2(C(=O)NCc3cccc(F)c3)CCCCC2)cc1
- RP-LC retention time: 887 s

Structure (SMILES): Cc1c(C(=O)N2CCN(C)CC2)sc2ncnc(N3CCN(c4ccccn4)CC3)c12
- RP-LC retention time: 523 s

Structure (SMILES): COCc1nc2cccnc2n1C1CCN(C(=O)Nc2ccccc2Br)CC1
- RP-LC retention time: 724 s

Structure (SMILES): O=C(CCC1CCCN(S(=O)(=O)c2ccccc2)C1)N1CCCCC1 (centres undefined)
- RP-LC retention time: 902 s

Structure (SMILES): Cc1cccc(N2CCN(c3ccc4cc(S(=O)(=O)N5CCCCC5)ccc4n3)CC2)c1C
- RP-LC retention time: 1320 s

Structure (SMILES): CCOc1ccccc1CN1C[C@@H](CO)[C@H](c2ccccn2)C1
- RP-LC retention time: 620 s

Structure (SMILES): CCOC(=O)C(=O)Nc1cc(Cl)ccc1C#N
- RP-LC retention time: 763 s

Structure (SMILES): CC1(C)CN(C(=O)C2CC2)c2ccc(S(=O)(=O)N3CCN(c4ccccn4)CC3)cc21
- RP-LC retention time: 692 s

Structure (SMILES): Cc1ccc(C)c(NC(=O)N2CCCC(C)(C(=O)NCc3ccccc3C)C2)c1 (centres undefined)
- RP-LC retention time: 1020 s

Structure (SMILES): CC1(C(=O)NCc2ccccc2)CN(S(=O)(=O)c2ccccc2)CC(=O)N1c1ccc(F)cc1 (centres undefined)
- RP-LC retention time: 914 s

Structure (SMILES): O=C(O)CCc1ccc(NCc2cccc(Oc3ccccc3)c2)cc1
- RP-LC retention time: 1040 s

Structure (SMILES): CCN(CC)c1nc(C(=O)Nc2ccc(C(C)=O)cc2)nc2nc(C)cc(C)c12
- RP-LC retention time: 679 s

Structure (SMILES): Cc1ccc(Nc2c(-c3ccc(Cl)cc3)nc3cc(C)ccn23)cc1
- RP-LC retention time: 807 s

Structure (SMILES): Cc1nn(-c2ccc(Cl)cc2)c(C)c1S(=O)(=O)N1CCC(C(=O)Nc2ccccc2F)CC1
- RP-LC retention time: 1020 s

Structure (SMILES): COCCNC(=O)c1cc2occc2c(Nc2ccc(Br)c(C)c2)n1
- RP-LC retention time: 1040 s

Structure (SMILES): COc1cc(CC(=O)N2CCc3cc(-c4ccno4)ccc32)cc(OC)c1
- RP-LC retention time: 921 s

Structure (SMILES): Cc1ccc(N2CCC(NC(=O)Nc3ccc4c(c3)OCCO4)C2=O)cc1C (centres undefined)
- RP-LC retention time: 798 s

Structure (SMILES): CCc1cc(N2CCN(C(=O)c3ccc(F)cc3)CC2)nc2nncn12
- RP-LC retention time: 548 s

Structure (SMILES): Cc1nn(Cc2nc(-c3ccc(NC(=O)C4CCCC4)cc3)oc2C)c(C)c1C
- RP-LC retention time: 860 s

Structure (SMILES): Cc1ccc2nc(C(=O)N3CCN(c4ccccc4C)CC3)cn2c1
- RP-LC retention time: 664 s

Structure (SMILES): O=S(=O)(c1ccccc1F)N1CC(n2cnnc2-c2ccccc2)C1
- RP-LC retention time: 671 s

Structure (SMILES): Cc1noc(C)c1CN1CCN(C(=O)c2cc(-c3ccco3)on2)CC1
- RP-LC retention time: 572 s

Structure (SMILES): Cc1ccccc1N1CCN(C(=O)c2ccc3c(c2)CC(=O)N3C)CC1
- RP-LC retention time: 839 s

Structure (SMILES): COc1ccc(CNC(=O)C2CCCN(c3ccc(=O)n(-c4cccc(Cl)c4)n3)C2)c(OC)c1 (centres undefined)
- RP-LC retention time: 876 s

Structure (SMILES): O=C(c1ccc(Cl)cc1Cl)N1CCN(c2cc(-c3ccc(Cl)cc3)[nH]n2)CC1
- RP-LC retention time: 981 s

Structure (SMILES): COc1ccc(NC(=O)N2CCC(n3cnc4cccnc43)CC2)cc1OC
- RP-LC retention time: 581 s

Structure (SMILES): O=c1ccc(N2CCCC(NS(=O)(=O)c3ccc(F)c(Cl)c3)C2)n[nH]1 (centres undefined)
- RP-LC retention time: 706 s

Structure (SMILES): CCn1c(=O)n(CC(=O)N2CCCC2)c(=O)c2cnc(-c3ccc(Cl)cc3)nc21
- RP-LC retention time: 1010 s

Structure (SMILES): CCOc1ccc(-c2nc3ncccn3c2NCc2ccc(C)cc2)cc1OC
- RP-LC retention time: 773 s

Structure (SMILES): Fc1ccc(-c2nc3ncccn3c2NCc2ccc(Cl)cc2)cc1
- RP-LC retention time: 782 s

Structure (SMILES): CC(=O)Nc1cc2c(cc1SC(C)C)n(C)c(=O)n2C
- RP-LC retention time: 705 s

Structure (SMILES): O=C(c1ccc(F)c(Cl)c1)N1CCN=C1N1CCCCC1
- RP-LC retention time: 673 s

Structure (SMILES): COc1ccc(Cc2nc(-c3ccc4c(c3)nnn4CCC(=O)N3CCCC3)no2)cc1
- RP-LC retention time: 839 s

Structure (SMILES): CC(=O)N1CCC(C(=O)NCc2nn(Cc3ccccc3)c3ccccc23)CC1
- RP-LC retention time: 728 s

Structure (SMILES): CCOc1ccc(-c2noc(Cn3c(=O)n(Cc4ccccc4)c(=O)c4sccc43)n2)cc1OC
- RP-LC retention time: 1110 s

Structure (SMILES): COC(=O)c1ncn2c1C(=O)N(Cc1cccc(C)c1)C(C)(C(=O)NCc1ccc(C)cc1)C2 (centres undefined)
- RP-LC retention time: 801 s

Structure (SMILES): Cn1cccc1-c1noc(C2CCN(C(=O)C3(c4ccccc4)CC3)C2)n1 (centres undefined)
- RP-LC retention time: 931 s

Structure (SMILES): CCN1CCn2cc(S(=O)(=O)Nc3ccc(F)c(F)c3)cc2C1=O
- RP-LC retention time: 727 s

Structure (SMILES): CCCCS(=O)(=O)c1cc2c(cc1NC(=O)c1ccc(Br)cc1)n(C)c(=O)n2C
- RP-LC retention time: 1020 s

Structure (SMILES): O=C(CCSc1ccccc1)NCCOc1ccc2nnc(-c3ccccc3)n2n1
- RP-LC retention time: 736 s

Structure (SMILES): O=C(NCC1CC1)C1CC(=O)N(c2ccc3c(c2)CCN3C(=O)C2CCC2)C1 (centres undefined)
- RP-LC retention time: 719 s

Structure (SMILES): CCCCCN1CC(=O)N(c2ccc(OC)cc2)[C@@H]2CS(=O)(=O)C[C@@H]21
- RP-LC retention time: 708 s

Structure (SMILES): Cc1cc2c(cc1C)N(CC(=O)Nc1ccc(F)cc1F)C(=O)CC(c1cccs1)=N2
- RP-LC retention time: 1070 s

Structure (SMILES): COCCN1CCn2cc(S(=O)(=O)Nc3ccc(Cl)cc3F)cc2C1=O
- RP-LC retention time: 734 s

Structure (SMILES): Cc1ccc(N2C(=O)c3cccnc3C2CC(=O)N2CCN(c3ccccn3)CC2)cc1 (centres undefined)
- RP-LC retention time: 579 s

Structure (SMILES): CCCNC(=O)N1CCCN(C2=NS(=O)(=O)C(c3ccccc3)=C2C)CC1
- RP-LC retention time: 735 s

Structure (SMILES): CCCCN(Cc1nc2nc(C)cc(C)n2n1)C(=O)c1ccccc1
- RP-LC retention time: 757 s

Structure (SMILES): CCS(=O)(=O)N1CCCc2cc(C(=O)Nc3cccc(Br)c3)ccc21
- RP-LC retention time: 1040 s

Structure (SMILES): O=C(O)C(Cc1c[nH]c2ccccc12)N1C(=O)c2ccccc2C1=O (centres undefined)
- RP-LC retention time: 858 s

Structure (SMILES): CCCc1c(C(=O)O)nnn1Cc1ccccc1Cl
- RP-LC retention time: 796 s

Structure (SMILES): COCCNC(=O)c1nc(N2CCSCC2)c2c(C)cc(C)nc2n1
- RP-LC retention time: 591 s

Structure (SMILES): COC(=O)c1ccc(C(=O)OC)c(NC(=O)CSc2ncnc3sc(C)c(C)c23)c1
- RP-LC retention time: 1130 s

Structure (SMILES): CCN(CC)c1ncc2c(n1)CCC(C(=O)NCc1cccc(OC)c1)C2 (centres undefined)
- RP-LC retention time: 695 s

Structure (SMILES): CCN(CC)CCNC(=O)CCc1cc2cc(C)ccc2[nH]c1=O
- RP-LC retention time: 587 s

Structure (SMILES): CCC(C(=O)NC1CC1)n1nc(C)c2c(C)n(-c3ccccc3)nc2c1=O (centres undefined)
- RP-LC retention time: 735 s

Structure (SMILES): O=C(CNC(=O)C1COc2ccccc2O1)NCCc1c[nH]c2ccccc12 (centres undefined)
- RP-LC retention time: 780 s

Structure (SMILES): O=c1ccn(-c2ccc(Cl)cc2)nc1-c1nc(-c2ccc(F)cc2)no1
- RP-LC retention time: 929 s

Structure (SMILES): Cc1cc(C)n2c(Nc3ccccc3C)c(-c3ccccc3)nc2n1
- RP-LC retention time: 728 s

Structure (SMILES): CCCn1nc2n(c1=O)CCN(Cc1ccc(C)c(C)c1)C2
- RP-LC retention time: 749 s

Structure (SMILES): O=S(=O)(CCc1ccccc1)N1CCCn2nc(-c3cccs3)cc2C1
- RP-LC retention time: 988 s

Structure (SMILES): CC(C)CNC(=O)N1CCN(Cc2nc3cccnc3n2-c2cccc(F)c2)CC1
- RP-LC retention time: 634 s

Structure (SMILES): CCn1cc(C(=O)NCCc2cccs2)c(=O)c2cc(OC)ccc21
- RP-LC retention time: 780 s

Structure (SMILES): CC(C)CNC(=O)C1CCN(c2nc3ccsc3c(=O)n2-c2ccccc2)CC1
- RP-LC retention time: 786 s

Structure (SMILES): Cc1nnc(-c2ccc3ccn(CC(=O)N4CCN(c5ccccc5F)CC4)c3c2)o1
- RP-LC retention time: 867 s

Structure (SMILES): CCc1ccccc1NC(=O)N1CC=C(c2cn(C(C)C)c3ncccc23)CC1
- RP-LC retention time: 958 s

Structure (SMILES): CCOC(=O)COC(=O)c1cn(-c2ccc(OCC)cc2)c(=O)c2ccccc12
- RP-LC retention time: 1070 s

Structure (SMILES): CCCC(=O)Nc1cnc(-c2ccccc2)nc1
- RP-LC retention time: 815 s

Structure (SMILES): CCC(=O)Nc1ccc(-n2cnc(C(=O)N3CCN(c4cccc(OC)c4)CC3)c2)nc1
- RP-LC retention time: 717 s

Structure (SMILES): CCOc1ccc2nc(C(=O)NC(C)(C)C)cn2n1
- RP-LC retention time: 802 s

Structure (SMILES): CN(C)c1ccc(NC(=O)c2ccco2)cc1
- RP-LC retention time: 532 s

Structure (SMILES): Cc1cc(N2CCN(S(=O)(=O)c3ccc(-c4ccccc4)cc3)CC2)nc(NC2CCCCC2)n1
- RP-LC retention time: 970 s

Structure (SMILES): Cc1ccc(N2C(=O)C3N=NN(Cc4nc(-c5ccccc5Cl)no4)C3C2=O)cc1 (centres undefined)
- RP-LC retention time: 996 s

Structure (SMILES): COC(=O)c1cnc2nc(C)ccc2c1Nc1ccc(F)cc1F
- RP-LC retention time: 674 s

Structure (SMILES): Cc1ccn(-c2ccc(C(=O)NC(C)C)cn2)n1
- RP-LC retention time: 715 s

Structure (SMILES): Cc1cc(C)n2c(Nc3c(C)cccc3C)c(-c3ccc(O)cc3)nc2n1
- RP-LC retention time: 646 s

Structure (SMILES): COc1ccccc1N1CCN(C(=O)Cn2nc(C(=O)N3CCOCC3)c3ccccc32)CC1
- RP-LC retention time: 718 s
